Assay results reported in patent EP0421419A2, “Tocotrienols in the treatment of hypercholesterolemia, hyperlipidemia and thromboembolic disorders” (Bristol-Myers Squibb Company, priority 1989, dated 1991).
In brackets after ≈: the same amount, converted by molar mass. Where two headings read alike, the source gives them in different places.

Tests used:
[1] = system: Cholesterol Synthesis in Isolated Rat Hepatocytes; assay: Rat hepatocyte cholesterol biosynthesis model (14C-acetate incorporation into digitonin-precipitable sterols); assay type: cell-based; conditions: for inhibition at 210 µg/mL: 210 µg/ml (approx. 500 µM), 60 min 14C-acetate incorporation, 0.2% Tween-80; for inhibition at 250 µg/mL: read-out: % Inhibition at µg/ml conc: 250; for inhibition at 500 µg/mL: read-out: % Inhibition at µg/ml conc: 500; for IC50: read-out: IC₅₀
Description: Primary rat parenchymal hepatocytes were prepared from male Wistar rats (180-220 g) at mid-dark in the diurnal cycle by standard collagenase perfusion method as described previously. Ingebritsen et al. J. Biol. Chem., 254: 9986-9989, (1979). Aliquots of cells were suspended (100 mg in 2 ml) in Eagle's minimum essential medium (MEM) supplemented with 2% bovine albumin, and preincubated in a shaking water bath at about 37° under 95% O₂/5% CO₂ with compounds added as given in the data. […] Following a preincubation of about 15 to about 45 minutes as indicated, cholesterol synthesis in intact cells was assayed by 2-14C-acetate (1.8 mCi/mmol, 0.5 µCi/ml) incorporation for about 30 to about 60 minutes (previously shown to be time-linear) into total digitonin-precipitable sterols. […] Percent inhibition was calculated from the average of duplicates vs. triplicate vehicle controls conducted simultaneously.
The primary rat hepatocyte assay for cholesterol bio-synthesis inhibition was conducted as described in Example 2 except the preincubation was about 45 minutes and the 14C-acetate incorporation was about 30 minutes. The indicated compounds were purified from the same natural product source as the mixture used in Example 2. […] Two-component mixtures of the constituents separated from the tocotrienol mixture were tested under the conditions indentical to Table 2A.

[2] = system: Cholesterol Synthesis in HepG2 Cells; assay: HepG2 cell culture model, 14C-acetate incorporation assay; assay type: cell-based, human; conditions: for inhibition at 10 µM / % Inhibition 14C-Ac: about 4 hours, 10 µM; for inhibition at 10 µM: read-out: % Inhibition 14C-Ac; for Rel. Potency: γ-Tocotrienol = 1.0; for IC50: read-out: IC₅₀
Description: HepG2 cells obtained from the American Type Culture Collection were routinely passaged in RPMI-1640 plus 10% fetal bovine serum (FBS) and were subcultured into 35 mm diameter wells for experiments. […] The LDS medium supplement was prepared according to Cham et al., J. Lipid Res., 17: 176-181, (1976). After about 16 hours in LDS containing media, test compounds were added in dimetthylsulfoxide vehicle (0.5% v/v final conc.) for the period of time indicated in the data (generally 4 hours). Cholesterol synthesis was then directly determined by the incorporation of 2-14C-acetate (1.8-3.0 mCi/mmol) into digitonin-precipitable sterols essentially as described for the rat hepatocyte methol above. Greater than 97% of the radiolabelled sterol isolated by this procedure was cholesterol as judged by HPLC. Percent inhibition was calculated from the average of duplicates or triplicates vs. controls receiving vehicle.
(§1) The human hepatoma HepG2 cell culture model was employed to compare the intrinsic activities of the tocotrienols. HepG2 cells were incubated with the indicated compounds for about 4 hours at 10 µM. Cholestrol synthesis was assayed by 14C-acetate incorporation and HMG-CoA reductase suppression was assayed in the isolated microsomal fraction. Cholesterol synthesis inhibition was assayed by 14C-acetate incorporation after preincubation of HepG2 cells with the compounds for about 2 hours or about 4 hours (Example IV). […] As the data in Figure 1 indicate, gamma-tocotrienol has an even greater relative potency compared to alpha-tocotrienol in the HepG2 cell model than in rat hepatocytes. The IC50s from these studies are given in Table 3, in which it can be seen that the intrinsic potency of gamma-tocotrienol is over 30-fold greater than that of alpha-tocotrienol.

[3] = system: HMG-CoA reductase; assay: HepG2 cell culture model, HMG-CoA reductase suppression assay; assay type: cell-based, human; conditions: 10 µM, about 4 hours, HepG2 cells
Description: HMG-CoA reductase suppression in HepG2 cells was conducted by growing cells in RPMT-1640 plus 10% FBS on 100 mm plates, and when cells reached approximately 75% confluency, inducing with LDS (as described above) for about 16 hours prior to assays. Compounds were added using dimethylsulfoxide vehicle (0.5% v/v, final) and after about 4 hours of incubation at 37°, cells were harvested by scraping. Cell pellets were rinsed and lysed by sonication in 1.7 ml cold 50 mM imidazole-HCL, pH 7.2, 50 mM NaCl, 10 mM EDTA, 10 mM EGTA, 5 mM DTT, and 40µM leupeptin). Lysates were centriguged at 150 x g and the supernatant was centrifuged at 100,000 x g in a Beckman airfuge to isolate the post-nuclear total membrane fraction. The membranes were resuspended in 50 mM imidazole-HCl, pH 7.2, 250 mM NaCl, 5 mM DTT, and 20µM leupeptin and used for the assay of HMG-CoA reductase activity by the radiochemical procedure as described previously by Parker et al., J. Biol. Chem., 264: 4877-4887, (1989). Values were normalized for protein content by the Lowry method as cited previously (ibid). HMG-CoA reductase percent suppression was calculated as the decrease in specific activity of HMG-CoA reductase for treated cells vs. controls receiving vehicle. Averages of duplicate cell determinations assayed in duplicate were taken.
as §1
The mechanism of cholesterol synthesis inhibition by tocotrienols involves down regulation of the limiting enzyme of sterol synthesis, HMG-CoA reductase. […] The suppression of HMG-CoA reductase protein expression by gamma-tocotrienol and delta-tocotrienol in HepG2 cells and in rat liver has been confirmed by immunoassy using the Western blot technique (data not shown).

[4] = system: Hepatic HMGCoA Reductase; assay: Acute rat HMGCoA reductase suppression model; assay type: in vivo; conditions: four hours after administration; for Hepatic HMGCoA Reductase Activity (mean ± SEM): 195 µmol/kg (equivalent to 80 mg/kg Example 24) intragastric in olive oil, vehicle control 479 ± 88; for Hepatic HMGCoA Reductase Activity % of Control: 195 µmol/kg intragastric in olive oil
Description: Using an acute rate model for suppression of hepatic HMGCoA reductase, the effectiveness of three forms of d,l-γ-tocotrienol were compared in vivo. In this assay system, the test agents were administered by intragastric intubation as solutions dissolved in olive oil vehicle. Four hours after administration of test agents, rat liver HMGCoA reductase total activity levels were determined by standard techniques in this laboratory. […]

[5] = system: Lipid Metabolism; assay: Lipid metabolism in normocholesterolemic chickens fed compound in diet; assay type: in vivo; conditions: CCD + 20 ppm per head (text: 50 ppm)
[6] = system: platelet aggregation; assay: Rabbit biolaser ear chamber antithrombotic model; assay type: in vivo; conditions: 100mg/kg oral
Description: The antithrombotic properties of gamma-tocotrienol were evaluated in a rabbit biolaser ear chamber model. Fasted rabbits were orally dosed with either vehicle or vehicle plus gamma-tocotrienol at 100mg/kg. An erythrocyte contained within a capillary, near the ear surface, is ruptured with a laser shot, thereby releasing platelet aggregating ADP. gamma-Tocotrienol inhibited platelet aggregation 37% at about 2 hours after oral dosing, 44% after about 4 hours and 25% after about 6 hours as measured by averaging the mean thrombus area over 10 trials.

[7] = Pure gamma-tocotrienol capsules in hypercholesterolemic human subjects; assay type: in vivo; conditions: capsules 50 mg/capsule, after 4 weeks of feeding; serum cholesterol levels 302.5 mg/dl
[8] = Rattus norvegicus, Hepatocyte, 15 min preincubation
[9] = Rattus norvegicus, Hepatocyte, Expt. # 1, 45 min preincubation, 30 min incorporation
[10] = Rattus norvegicus, Hepatocyte, Expt. # 2, 45 min preincubation, 30 min incorporation

## CC(C)=CCC/C(C)=C/CC/C(C)=C/CCC1(C)CCc2c(C)c(O)c(C)c(C)c2O1 (racemic) [d,1-α-tocotrienol, 3,4-dihydro-2,5,7,8-tetramethyl-2-(4,8,12-trimethyltrideca-3(E),7(E),11-trienyl)-2H-1-benzopyran-6-ol, reference compound]
[1]; Rattus norvegicus, Hepatocyte, 41 µg/ml (approx. 100 µM), 15 min preincubation, 60 min incorporation
  inhibition at 41 µg/mL: 4%
[1]; [8]
  inhibition at 210 µg/mL: 17%
[2]; Homo sapiens, HepG2
  inhibition at 10 µM: 20%
[3]
  % Suppression HMG-CoA Reductase: 19%

## CC(C)=CCC/C(C)=C/CC/C(C)=C/CCC1(C)CCc2cc(O)c(C)c(C)c2O1 (racemic) [Ex. 24, 3,4-dihydro-2,7,8-trimethyl-2-(4,8,12-trimethyltrideca-3(E),7(E),11-trienyl)-2H-1-benzopyran-6-ol]
[4]
  Hepatic HMGCoA Reductase Activity (mean ± SEM): 266 ± 24 mU/mg
  Hepatic HMGCoA Reductase Activity % of Control: 56%
[5]; Table 6, synthetic compound, 4 weeks, control 158.8(±9.0)
  Serum Cholesterol: 121.2(±2.2) mg/dl
[5]; Table 6
  HDL-Cholesterol [% of Control]: 87.0%
  LDL-Cholesterol [% of Control]: 54.8%
  Serum Cholesterol [% of Control]: 76.3%
  Serum Triglycerides [% of Control]: 100.7%
[5]; Table 6, control 1.938
  HDL/LDL: 3.080
[5]; Table 6, control 52.8 (±1.1)
  LDL-Cholesterol: 28.9(±1.2) mg/dl
[5]; Table 6, control 63.4(±2.1)
  Serum Triglycerides: 63.9(±1.6) mg/dl
[5]; Table 6, control 102.3(±3.0)
  HDL-Cholesterol: 89.0(±2.9) mg/dl
[2]; Homo sapiens, HepG2
  inhibition at 10 µM: 75%
[3]
  % Suppression HMG-CoA Reductase: 65%

## γ-Tocopherol [reference compound]
[2]
  % Inhibition 14C-Ac: 3%
[3]
  % Suppression HMG-CoA Reductase: 0%

## CC(C)=CCC/C(C)=C/CC/C(C)=C/CCC1(C)CCc2cc(O)c(C)c(C)c2O1 (stereo not shown) [γ-Tocotrienol]
[1]; rat and chicken hepatocyte system
  times more active than alpha-tocotrienol: at least 5 times
[6]; about 2 hours after dosing, mean thrombus area over 10 trials
  inhibited platelet aggregation: 37%
[6]; about 4 hours after dosing
  inhibited platelet aggregation: 44%
[6]; about 6 hours after dosing
  inhibited platelet aggregation: 25%
[2]; 2 hr. Incubation
  Rel. Potency: 1.0
[2]; 4 hr. Incubation
  Rel. Potency: 1.0
[2]; Homo sapiens, HepG2, 2 hr. Incubation
  IC50: 5.9 µM
[2]; Homo sapiens, HepG2, 4 hr. Incubation
  IC50: 2.8 µM
[2]; from IC50s of Table 3
  intrinsic potency greater than that of alpha-tocotrienol: over 30 fold
[7]
  decrease in serum cholesterol levels: 35%

## CC(C)=CCC/C(C)=C/CC/C(C)=C/CC[C@]1(C)CCc2c(C)c(O)c(C)c(C)c2O1 [d-α-tocotrienol, reference compound]
[1]; Rattus norvegicus, Hepatocyte, 125 µg/ml, Expt. # 2, 45 min preincubation, 30 min incorporation, read-out: % Inhibition at µg/ml conc: 125
  inhibition at 125 µg/mL: 8%
[1]; [9]
  inhibition at 250 µg/mL: 8%
  inhibition at 500 µg/mL: 12%
  IC50: > 1000 mg/L
[1]; [10]
  inhibition at 250 µg/mL: 20%
  inhibition at 500 µg/mL: 33%
  IC50: 1300 mg/L (≈ 3.06 mM)

## 3,4-dihydro-2-methyl-2-(4,8,12-trimethyltrideca-3(E),7(E),11-trienyl)-2H-1-benzopyran-6-ol [d,1-Tocotrienol]
[2]
  % Inhibition 14C-Ac: 69%
[3]
  % Suppression HMG-CoA Reductase: 62%

## α-Tocotrienol [reference compound]
[2]; 2 hr. Incubation
  IC50: 380 µM
  Rel. Potency: 0.02
[2]; 4 hr. Incubation
  IC50: 94 µM
  Rel. Potency: 0.03

## CC(=O)Oc1cc2c(c(C)c1C)OC(C)(CC/C=C(\C)CC/C=C(\C)CCC=C(C)C)CC2 (racemic) [Ex. 33, 3,4-Dihydro-2,7,8-Trimethyl-2-(4,8,12-Trimethyltrideca-3(E),7(E), 11-trienyl)-2H-1-Benzopyran-6-Yl Acetate]
[4]
  Hepatic HMGCoA Reductase Activity (mean ± SEM): 236 ± 23 mU/mg
  Hepatic HMGCoA Reductase Activity % of Control: 49%

## Cc1c(C)c2c(c(C)c1O)CC[C@@](C)(CCC[C@H](C)CCC[C@H](C)CCCC(C)C)O2 [d-α-tocopherol, reference compound]
[1]; Expt. # 1, 45 min preincubation, 30 min incorporation
  IC₅₀: no inhib
[1]; [8]
  inhibition at 210 µg/mL: 0%
[1]; [9]
  inhibition at 250 µg/mL: 0%
  inhibition at 500 µg/mL: 2%
[1]; [10]
  inhibition at 250 µg/mL: 0%
  inhibition at 500 µg/mL: 0%

## CC(C)=CCC/C(C)=C/CC/C(C)=C/CCC1(C)CCc2cc(OC(=O)c3cccnc3)c(C)c(C)c2O1 (racemic) [Ex. 34, 3,4-Dihydro-2,7,8-Trimethyl-2-(4,8,12-Trimethyl 3(E), 7(E),11-tridecatrienyl)-2H-1 Benzopyran-6-Yl-3-Pyridine Carboxylate]
[4]
  Hepatic HMGCoA Reductase Activity (mean ± SEM): 156 ± 21 mU/mg
  Hepatic HMGCoA Reductase Activity % of Control: 33%
